# pIC50: −log10 of the molar value.
# Columns and labels:
# [1] = target: T1, Tyrosine-protein kinase BTK (Homo sapiens, UniProt Q06187); test: Inhibition of BTK in human PBMC assessed as reduction in cell surface CD69 expression preincubated for 1 hr followed by stimulation with goat anti-human IgM F(ab')2 for 18 hrs by immunostaining analysis; format: tissue-based
# [2] = target: T1, Tyrosine-protein kinase BTK; test: Inhibition of BTK in human whole blood assessed as reduction in cell surface CD69 expression preincubated for 1 hr followed by stimulation with anti-CD79b for 3 hrs by immunostaining analysis; format: tissue-based
# [3] = AUC in Wistar Han rat at 2 mg/kg, iv; format: ADME, organism-based; parameters: dose 2 mg/kg; conditions: in vivo
# [4] = AUC in Beagle dog at 1 mg/kg, iv; format: ADME, organism-based, Canis lupus familiaris; parameters: dose 1 mg/kg; conditions: in vivo
# [5] = Oral bioavailability in Wistar Han rat at 5 mg/kg; format: ADME, organism-based; conditions: Wistar Han, in vivo
# [6] = Volume of distribution at steady state in Wistar Han rat at 2 mg/kg, iv; format: ADME, organism-based; conditions: in vivo, read-out: Vdss
# [7] = Half life in Wistar Han rat at 2 mg/kg, iv; format: ADME, organism-based; conditions: in vivo
# [8] = Cmax in Wistar Han rat at 5 mg/kg, po; format: ADME, organism-based; parameters: route oral, dose 5 mg/kg; conditions: in vivo
# [9] = Clearance in Wistar Han rat at 2 mg/kg, iv; format: ADME, organism-based; conditions: in vivo
# [10] = Tmax in Wistar Han rat at 5 mg/kg, po; format: ADME, organism-based; conditions: in vivo
# [11] = target: T1, Tyrosine-protein kinase BTK; test: Inhibition of recombinant full length BTK (unknown origin) expressed in baculovirus infected Sf9 cells using Biotin-EQEDEPEGDYFEWLE-NH2 peptide as substrate incubated for 60 mins followed by further incubation with substrate and ATP for 120 mins by TR-FRET assay
# [12] = target: T2, Cytoplasmic tyrosine-protein kinase BMX (Homo sapiens, UniProt P51813); test: Inhibition of BMX (unknown origin)
# T2 sequence (P51813 whole entry): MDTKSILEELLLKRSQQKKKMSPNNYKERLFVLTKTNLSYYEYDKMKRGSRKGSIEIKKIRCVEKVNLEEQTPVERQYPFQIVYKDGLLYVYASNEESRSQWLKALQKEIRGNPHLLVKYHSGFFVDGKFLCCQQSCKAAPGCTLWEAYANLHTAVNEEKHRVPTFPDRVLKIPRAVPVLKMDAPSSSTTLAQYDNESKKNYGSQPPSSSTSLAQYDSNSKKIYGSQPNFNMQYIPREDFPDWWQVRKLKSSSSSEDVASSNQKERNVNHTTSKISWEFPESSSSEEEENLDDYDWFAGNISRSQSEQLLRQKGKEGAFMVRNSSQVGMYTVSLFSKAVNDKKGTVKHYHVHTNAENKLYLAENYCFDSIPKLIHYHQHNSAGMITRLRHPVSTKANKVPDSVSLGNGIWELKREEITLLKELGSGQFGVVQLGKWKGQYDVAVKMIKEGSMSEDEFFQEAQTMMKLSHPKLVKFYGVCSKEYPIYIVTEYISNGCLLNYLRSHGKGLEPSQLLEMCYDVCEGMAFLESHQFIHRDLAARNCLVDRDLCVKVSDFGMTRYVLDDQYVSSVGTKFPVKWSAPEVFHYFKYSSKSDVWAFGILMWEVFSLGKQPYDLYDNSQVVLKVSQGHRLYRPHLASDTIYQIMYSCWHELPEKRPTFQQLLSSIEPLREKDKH
# [13] = target: Tyrosine-protein kinase FRK (Homo sapiens, UniProt P42685); test: Inhibition of FRK (unknown origin)
# [14] = target: Receptor tyrosine-protein kinase erbB-4 (Homo sapiens, UniProt Q15303); test: Inhibition of ERBB4 (unknown origin)
# Receptor tyrosine-protein kinase erbB-4, sequence (Q15303 whole entry): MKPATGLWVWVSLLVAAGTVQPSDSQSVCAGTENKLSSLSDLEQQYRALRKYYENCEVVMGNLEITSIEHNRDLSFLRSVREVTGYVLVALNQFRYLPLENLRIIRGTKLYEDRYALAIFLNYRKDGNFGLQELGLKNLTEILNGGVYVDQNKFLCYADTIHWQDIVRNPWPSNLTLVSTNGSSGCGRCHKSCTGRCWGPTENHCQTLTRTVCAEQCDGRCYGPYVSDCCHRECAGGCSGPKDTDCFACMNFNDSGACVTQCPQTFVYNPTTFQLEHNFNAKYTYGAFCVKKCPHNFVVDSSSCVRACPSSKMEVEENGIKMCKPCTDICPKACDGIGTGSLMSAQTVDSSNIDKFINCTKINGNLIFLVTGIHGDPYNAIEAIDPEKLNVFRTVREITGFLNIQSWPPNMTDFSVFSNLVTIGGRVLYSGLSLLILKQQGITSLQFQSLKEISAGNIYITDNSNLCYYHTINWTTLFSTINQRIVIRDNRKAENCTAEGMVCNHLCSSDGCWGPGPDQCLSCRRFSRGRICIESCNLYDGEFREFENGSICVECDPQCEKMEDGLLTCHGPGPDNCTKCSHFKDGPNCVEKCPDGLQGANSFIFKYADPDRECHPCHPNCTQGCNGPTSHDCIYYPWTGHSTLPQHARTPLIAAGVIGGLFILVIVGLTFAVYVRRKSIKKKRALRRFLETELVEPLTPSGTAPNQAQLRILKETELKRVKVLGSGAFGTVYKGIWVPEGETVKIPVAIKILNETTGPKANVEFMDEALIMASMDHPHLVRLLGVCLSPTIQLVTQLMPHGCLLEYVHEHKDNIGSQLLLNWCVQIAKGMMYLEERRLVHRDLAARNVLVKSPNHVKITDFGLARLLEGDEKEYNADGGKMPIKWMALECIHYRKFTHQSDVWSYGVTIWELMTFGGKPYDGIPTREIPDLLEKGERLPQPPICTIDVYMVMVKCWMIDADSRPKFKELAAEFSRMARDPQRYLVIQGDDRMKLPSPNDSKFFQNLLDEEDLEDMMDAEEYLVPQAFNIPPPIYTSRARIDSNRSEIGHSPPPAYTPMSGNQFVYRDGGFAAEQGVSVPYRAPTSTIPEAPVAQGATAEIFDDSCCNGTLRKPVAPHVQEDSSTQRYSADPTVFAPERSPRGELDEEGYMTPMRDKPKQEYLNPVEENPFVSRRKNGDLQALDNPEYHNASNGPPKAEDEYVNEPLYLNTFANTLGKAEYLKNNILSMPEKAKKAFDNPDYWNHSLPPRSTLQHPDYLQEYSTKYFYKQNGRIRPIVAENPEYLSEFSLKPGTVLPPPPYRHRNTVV
# [15] = target: Tyrosine-protein kinase Yes (Homo sapiens, UniProt P07947); test: Inhibition of YES1 (unknown origin)
# [16] = Tmax in Beagle dog at 2 mg/kg, po; format: ADME, organism-based, Canis lupus familiaris; conditions: in vivo
# [17] = target: T3, Tyrosine-protein kinase Tec (Homo sapiens, UniProt P42680); test: Inhibition of TEC (unknown origin)
# T3 sequence (P42680 whole entry): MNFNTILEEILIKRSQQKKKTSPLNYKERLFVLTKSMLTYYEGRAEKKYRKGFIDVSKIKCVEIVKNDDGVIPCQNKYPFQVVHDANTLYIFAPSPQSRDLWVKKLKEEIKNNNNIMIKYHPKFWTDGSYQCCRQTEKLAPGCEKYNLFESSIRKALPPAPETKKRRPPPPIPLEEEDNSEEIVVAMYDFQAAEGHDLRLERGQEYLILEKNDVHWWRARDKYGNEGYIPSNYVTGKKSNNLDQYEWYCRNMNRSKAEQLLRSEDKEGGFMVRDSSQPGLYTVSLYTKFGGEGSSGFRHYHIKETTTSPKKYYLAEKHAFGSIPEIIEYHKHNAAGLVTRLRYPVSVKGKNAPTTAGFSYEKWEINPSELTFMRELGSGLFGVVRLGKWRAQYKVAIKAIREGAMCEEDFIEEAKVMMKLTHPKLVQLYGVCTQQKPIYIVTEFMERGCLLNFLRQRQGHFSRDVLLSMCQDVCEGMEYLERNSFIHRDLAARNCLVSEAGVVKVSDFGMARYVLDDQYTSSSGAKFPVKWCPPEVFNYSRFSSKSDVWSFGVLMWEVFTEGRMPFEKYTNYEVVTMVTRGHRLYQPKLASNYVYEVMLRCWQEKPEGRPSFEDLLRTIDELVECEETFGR
# [18] = target: Tyrosine-protein kinase Blk (Homo sapiens, UniProt P51451); test: Inhibition of BLK (unknown origin)
# Tyrosine-protein kinase Blk, sequence (P51451 whole entry): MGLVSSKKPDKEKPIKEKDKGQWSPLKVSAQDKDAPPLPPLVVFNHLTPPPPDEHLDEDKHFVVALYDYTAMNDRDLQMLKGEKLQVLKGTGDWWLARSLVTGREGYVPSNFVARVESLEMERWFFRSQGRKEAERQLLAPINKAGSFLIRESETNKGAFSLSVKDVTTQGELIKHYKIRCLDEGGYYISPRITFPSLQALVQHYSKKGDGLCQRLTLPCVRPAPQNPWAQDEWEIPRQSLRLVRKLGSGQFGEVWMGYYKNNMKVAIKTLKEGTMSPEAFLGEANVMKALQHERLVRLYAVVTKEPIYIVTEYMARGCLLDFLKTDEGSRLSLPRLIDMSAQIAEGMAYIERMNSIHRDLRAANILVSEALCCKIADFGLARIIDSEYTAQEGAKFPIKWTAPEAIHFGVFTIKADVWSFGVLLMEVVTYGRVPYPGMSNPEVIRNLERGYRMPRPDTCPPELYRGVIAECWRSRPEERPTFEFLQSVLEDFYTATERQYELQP
# [19] = target: Tyrosine-protein kinase Lyn (Homo sapiens, UniProt P07948); test: Inhibition of LYNB (unknown origin)
# [20] = tested on: Rattus norvegicus; test: Antiarthritic activity in Lewis rat model of collagen-induced arthritis assessed as decrease in paw thickness at 15 to 120 mg/kg, po qd and measured for 30 days; format: functional, organism-based; conditions: dose mg/kg 15-120, time 30.0 day
# [21] = target: Tyrosine-protein kinase Srms (Homo sapiens, UniProt Q9H3Y6); test: Inhibition of SRMS (unknown origin)
# Tyrosine-protein kinase Srms, sequence (Q9H3Y6 whole entry): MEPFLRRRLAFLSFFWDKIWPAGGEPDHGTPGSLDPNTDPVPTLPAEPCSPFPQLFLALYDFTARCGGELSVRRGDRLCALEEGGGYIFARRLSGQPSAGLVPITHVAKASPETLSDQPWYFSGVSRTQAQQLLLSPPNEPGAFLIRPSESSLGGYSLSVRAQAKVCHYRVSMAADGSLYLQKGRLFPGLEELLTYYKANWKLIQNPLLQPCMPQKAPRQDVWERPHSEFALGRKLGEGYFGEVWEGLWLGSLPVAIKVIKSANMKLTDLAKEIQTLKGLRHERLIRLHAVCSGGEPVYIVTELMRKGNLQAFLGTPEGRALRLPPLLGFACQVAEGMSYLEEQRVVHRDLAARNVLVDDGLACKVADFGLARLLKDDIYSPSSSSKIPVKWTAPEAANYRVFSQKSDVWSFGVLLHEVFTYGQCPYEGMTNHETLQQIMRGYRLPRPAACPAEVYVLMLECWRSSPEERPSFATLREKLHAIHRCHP
# [22] = Half life in Beagle dog at 1 mg/kg, iv; format: ADME, organism-based, Canis lupus familiaris; conditions: in vivo
# [23] = target: Tyrosine-protein kinase Lck (Homo sapiens, UniProt P06239); test: Inhibition of LCK (unknown origin)
# Tyrosine-protein kinase Lck, sequence (P06239 whole entry): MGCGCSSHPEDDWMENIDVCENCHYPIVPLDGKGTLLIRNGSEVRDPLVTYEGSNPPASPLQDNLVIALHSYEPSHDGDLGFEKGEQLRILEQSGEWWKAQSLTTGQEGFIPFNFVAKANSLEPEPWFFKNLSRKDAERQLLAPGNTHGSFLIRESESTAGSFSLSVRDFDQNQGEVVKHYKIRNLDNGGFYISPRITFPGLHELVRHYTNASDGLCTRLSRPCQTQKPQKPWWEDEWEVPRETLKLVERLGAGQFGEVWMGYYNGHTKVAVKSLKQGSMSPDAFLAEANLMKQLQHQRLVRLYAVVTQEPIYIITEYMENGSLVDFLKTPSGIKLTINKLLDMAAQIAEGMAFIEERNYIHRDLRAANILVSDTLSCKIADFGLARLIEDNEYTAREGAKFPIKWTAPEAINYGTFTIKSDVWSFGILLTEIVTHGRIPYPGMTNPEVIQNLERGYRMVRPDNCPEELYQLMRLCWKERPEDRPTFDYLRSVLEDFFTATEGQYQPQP
# [24] = target: T4, Tyrosine-protein kinase TXK (Homo sapiens, UniProt P42681); test: Inhibition of TXK (unknown origin)
# T4 sequence (P42681 whole entry): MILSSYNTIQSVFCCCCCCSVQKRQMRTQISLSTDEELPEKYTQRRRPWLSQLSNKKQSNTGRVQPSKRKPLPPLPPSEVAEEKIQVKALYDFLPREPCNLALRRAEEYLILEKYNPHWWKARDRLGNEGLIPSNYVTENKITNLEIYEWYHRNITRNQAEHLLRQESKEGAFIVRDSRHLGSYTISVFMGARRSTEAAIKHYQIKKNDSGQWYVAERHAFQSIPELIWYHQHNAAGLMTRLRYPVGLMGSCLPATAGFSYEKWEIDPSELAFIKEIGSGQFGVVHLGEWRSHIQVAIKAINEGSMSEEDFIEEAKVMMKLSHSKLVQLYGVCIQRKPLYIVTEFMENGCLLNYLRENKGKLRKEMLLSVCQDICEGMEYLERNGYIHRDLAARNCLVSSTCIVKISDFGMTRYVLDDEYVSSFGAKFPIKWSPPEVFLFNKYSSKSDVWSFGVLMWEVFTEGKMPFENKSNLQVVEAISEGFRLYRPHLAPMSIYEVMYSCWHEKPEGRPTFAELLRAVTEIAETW
# [25] = target: Proto-oncogene tyrosine-protein kinase Src (Homo sapiens, UniProt P12931); test: Inhibition of SRC (unknown origin)
# [26] = Oral bioavailability in Beagle dog at 2 mg/kg; format: ADME, organism-based, Canis lupus familiaris; conditions: in vivo
# [27] = target: Tyrosine-protein kinase Fyn (Homo sapiens, UniProt P06241); test: Inhibition of FYN (unknown origin)
# Tyrosine-protein kinase Fyn, sequence (P06241 whole entry): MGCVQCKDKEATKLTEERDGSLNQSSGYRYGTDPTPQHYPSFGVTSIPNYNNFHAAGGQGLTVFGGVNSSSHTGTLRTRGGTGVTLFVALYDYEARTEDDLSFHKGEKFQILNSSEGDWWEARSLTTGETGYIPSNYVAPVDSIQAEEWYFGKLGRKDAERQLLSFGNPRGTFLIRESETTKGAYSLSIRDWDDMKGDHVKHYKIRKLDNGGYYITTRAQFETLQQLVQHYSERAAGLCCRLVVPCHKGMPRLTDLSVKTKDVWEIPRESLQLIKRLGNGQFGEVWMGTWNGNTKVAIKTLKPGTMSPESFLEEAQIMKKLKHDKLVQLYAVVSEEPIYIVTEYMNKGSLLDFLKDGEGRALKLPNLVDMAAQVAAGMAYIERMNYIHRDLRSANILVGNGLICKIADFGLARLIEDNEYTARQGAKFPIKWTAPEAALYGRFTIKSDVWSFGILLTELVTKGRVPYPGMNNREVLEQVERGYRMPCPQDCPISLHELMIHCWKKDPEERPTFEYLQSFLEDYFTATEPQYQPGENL
# [28] = target: Protein-tyrosine kinase 6 (Homo sapiens, UniProt Q13882); test: Inhibition of PTK6 (unknown origin)
# Protein-tyrosine kinase 6, sequence (Q13882 whole entry): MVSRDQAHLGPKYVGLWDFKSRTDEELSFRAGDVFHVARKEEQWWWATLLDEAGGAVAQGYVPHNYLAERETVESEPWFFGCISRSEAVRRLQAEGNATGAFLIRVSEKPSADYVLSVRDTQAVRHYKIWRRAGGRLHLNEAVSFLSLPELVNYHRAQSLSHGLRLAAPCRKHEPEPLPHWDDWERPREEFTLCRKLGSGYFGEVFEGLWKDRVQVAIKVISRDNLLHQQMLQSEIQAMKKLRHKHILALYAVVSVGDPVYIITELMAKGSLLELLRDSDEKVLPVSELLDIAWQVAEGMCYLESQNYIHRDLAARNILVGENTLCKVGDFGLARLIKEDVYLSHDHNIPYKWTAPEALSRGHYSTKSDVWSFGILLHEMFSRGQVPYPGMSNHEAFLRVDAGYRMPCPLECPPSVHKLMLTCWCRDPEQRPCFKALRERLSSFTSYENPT
# [29] = Clearance in Beagle dog at 1 mg/kg, iv; format: ADME, organism-based, Canis lupus familiaris; conditions: in vivo
# [30] = target: Tyrosine-protein kinase Fgr (Homo sapiens, UniProt P09769); test: Inhibition of FGR (unknown origin)
# [31] = Volume of distribution at steady state in Beagle dog at 1 mg/kg, iv; format: ADME, organism-based, Canis lupus familiaris; conditions: in vivo, read-out: Vdss
# [32] = target: Tyrosine-protein kinase CSK (Homo sapiens, UniProt P41240); test: Inhibition of CSK (unknown origin)
# Tyrosine-protein kinase CSK, sequence (P41240 whole entry): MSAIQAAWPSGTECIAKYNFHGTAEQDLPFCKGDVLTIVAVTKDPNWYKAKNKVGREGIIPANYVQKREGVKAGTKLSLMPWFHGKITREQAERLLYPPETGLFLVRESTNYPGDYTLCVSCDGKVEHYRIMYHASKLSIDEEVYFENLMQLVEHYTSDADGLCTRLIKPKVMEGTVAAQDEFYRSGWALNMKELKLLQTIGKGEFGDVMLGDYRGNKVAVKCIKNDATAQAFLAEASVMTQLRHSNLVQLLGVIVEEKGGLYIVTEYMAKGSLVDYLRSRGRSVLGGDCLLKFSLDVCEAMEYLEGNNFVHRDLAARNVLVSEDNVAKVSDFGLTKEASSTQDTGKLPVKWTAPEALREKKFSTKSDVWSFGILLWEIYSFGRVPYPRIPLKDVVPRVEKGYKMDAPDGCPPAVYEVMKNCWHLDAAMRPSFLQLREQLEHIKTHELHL
# [33] = Cmax in Beagle dog at 2 mg/kg, po; format: ADME, organism-based, Canis lupus familiaris; parameters: route oral, dose 2 mg/kg; conditions: in vivo
# T1 sequence (Q06187 whole entry): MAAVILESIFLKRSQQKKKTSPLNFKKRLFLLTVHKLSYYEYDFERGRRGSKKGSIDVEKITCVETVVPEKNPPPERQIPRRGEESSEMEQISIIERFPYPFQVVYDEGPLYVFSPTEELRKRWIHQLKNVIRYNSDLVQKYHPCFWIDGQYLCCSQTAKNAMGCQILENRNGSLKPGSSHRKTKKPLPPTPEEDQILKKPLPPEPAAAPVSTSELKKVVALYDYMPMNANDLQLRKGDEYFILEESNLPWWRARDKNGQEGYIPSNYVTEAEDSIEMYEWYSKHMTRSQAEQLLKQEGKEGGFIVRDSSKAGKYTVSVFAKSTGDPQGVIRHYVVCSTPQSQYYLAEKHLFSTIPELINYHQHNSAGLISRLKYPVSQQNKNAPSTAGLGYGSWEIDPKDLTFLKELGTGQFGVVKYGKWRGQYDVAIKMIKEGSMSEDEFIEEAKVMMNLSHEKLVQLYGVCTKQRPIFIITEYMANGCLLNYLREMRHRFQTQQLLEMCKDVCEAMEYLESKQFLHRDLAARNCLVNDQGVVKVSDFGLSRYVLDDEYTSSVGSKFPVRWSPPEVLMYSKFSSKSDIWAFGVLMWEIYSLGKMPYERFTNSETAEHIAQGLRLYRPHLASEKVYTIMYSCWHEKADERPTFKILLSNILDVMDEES
smiles,measurement,setting,value
Nc1nccn2c([C@@H]3CC[C@H]4CCC(=O)N4C3)nc(-c3ccc(C(=O)Nc4cc(C(F)(F)F)ccn4)cc3F)c12,pIC50,[1],8.40
same,pIC50,[2],7.00
Nc1nccn2c([C@@H]3CC[C@H]4CCC(=O)N4C3)nc(-c3ccc(C(=O)Nc4cc(C(F)(F)F)ccn4)cc3OC(F)F)c12,pIC50,[1],7.70
same,pIC50,[2],6.38
C[C@H]1CC[C@@H](c2nc(-c3ccc(C(=O)Nc4cc(C(F)(F)F)ccn4)cc3F)c3c(N)nccn23)CN1C(=O)C1CC1,AUC,[3],3.1 µM·h
same,AUC,[4],20 µM·h
NC(=O)c1cc(C(=O)Nc2cc(C(F)(F)F)ccn2)ccc1-c1nc([C@@H]2CC[C@H]3CCC(=O)N3C2)n2ccnc(N)c12,pIC50,[1],< 5.52
Nc1nccn2c([C@@H]3CC[C@H]4CCCC(=O)N4C3)nc(-c3ccc(C(=O)Nc4cc(C(F)(F)F)ccn4)cc3F)c12,pIC50,[1],7.41
Nc1nccn2c([C@@H]3CC[C@H]4CCC(=O)N4C3)nc(-c3ccc(C(=O)Nc4cc(C(F)(F)F)ccn4)cc3C(=O)O)c12,pIC50,[1],5.85
Nc1nccn2c([C@@H]3CC[C@H]4CCC(=O)N4C3)nc(-c3ccc(C(=O)Nc4cc(C(F)(F)F)ccn4)cc3OC3CC3)c12,bioavailability,[5],14%
same,Vd,[6],4.2 L/kg
same,AUC,[3],1.4 µM·h
same,half-life,[7],2.3 h
same,Cmax,[8],140 nM
same,clearance,[9],42 mL/min/kg
same,Tmax,[10],3.5 h
Nc1nccn2c([C@H]3CN4C(=O)OC[C@@H]4CO3)nc(-c3ccc(C(=O)Nc4cc(C(F)(F)F)ccn4)cc3)c12,pIC50,[11],7.60
same,pIC50,[1],6.24
CCOc1cc(C(=O)Nc2cc(C(F)(F)F)ccn2)ccc1-c1nc([C@@H]2CC[C@H]3CCC(=O)N3C2)n2ccnc(N)c12,pIC50,[1],8.00
same,pIC50,[2],7.04
Nc1nccn2c([C@H]3CN4C(=O)CC[C@@H]4CO3)nc(-c3ccc(C(=O)Nc4cc(C(F)(F)F)ccn4)cc3)c12,pIC50,[1],8.14
same,pIC50,[2],6.58
COc1cc(C(=O)Nc2cc(C(F)(F)F)ccn2)ccc1-c1nc([C@@H]2CC[C@H]3CCC(=O)N3C2)n2ccnc(N)c12,pIC50,[12],7.72
same,pIC50,[13],6.81
same,pIC50,[14],6.80
same,bioavailability,[5],9.5%
same,pIC50,[15],7.27
same,Vd,[6],4 L/kg
same,Tmax,[16],1.5 h
same,AUC,[3],1.1 µM·h
same,half-life,[7],3 h
same,pIC50,[17],7.17
same,pIC50,[18],7.00
same,pIC50,[19],6.79
same,Activity,[20],Dose-dependent effect
same,pIC50,[21],7.80
same,Cmax,[8],50 nM
same,half-life,[22],3.4 h
same,clearance,[9],53 mL/min/kg
same,pIC50,[23],7.59
same,pIC50,[24],6.99
same,pIC50,[25],7.15
same,Tmax,[10],2.1 h
same,bioavailability,[26],108%
same,AUC,[4],1.6 µM·h
same,pIC50,[27],5.91
same,pIC50,[28],7.08
same,clearance,[29],20 mL/min/kg
same,pIC50,[30],7.19
same,Vd,[31],3 L/kg
same,pIC50,[32],6.64
same,Cmax,[33],1100 nM
